assay: method code SF-AS, from Smul'skii, S.; Bogatskii, A.; Andronati, S.; Vikhlyaev, Yu.; Zhilina, Z. (1977). Lipophilic nature of quinazolin-2-ones and 1,2-dihydro-3H-1,4-benzodiazepin-2-ones. Otdel. Khim. Nauk., 235(2)369-371.; details: pH 7.4

| Structure (SMILES) | logD |
| --- | --- |
| CC1N=C(c2ccccc2)c2cc(Cl)ccc2N(C)C1=O (configuration not stated) | 3.68 |
| O=c1nc(-c2ccccc2)c2cc(Br)ccc2[nH]1 | 2.71 |
| O=C1Nc2ccc(Br)cc2C(c2ccccc2Cl)=NC1O (configuration not stated) | 2.54 |
| O=C1CN=C(c2ccccc2Cl)c2cc(Br)ccc2N1 | 3.3 |
| CC(C)C1N=C(c2ccccc2)c2cc(Br)ccc2NC1=O (configuration not stated) | 4.18 |
| Cc1ccc2[nH]c(=O)nc(-c3ccccc3)c2c1 | 2.32 |
| O=c1nc(-c2ccccc2)c2ccccc2[nH]1 | 1.91 |
| CC(=O)OC1N=C(c2ccccc2)c2cc(Cl)ccc2NC1=O (configuration not stated) | 2.6 |
| CC1N=C(c2ccccc2)c2cc(Cl)ccc2NC1=O (configuration not stated) | 3.25 |
| CCCC1N=C(c2ccccc2)c2cc(Cl)ccc2NC1=O (configuration not stated) | 4.14 |
| Cc1ccc2c(c1)=C(c1ccccc1)N(O)CC(=O)N=2 | 1.13 |
| O=C1CN(O)C(c2ccccc2)=c2cc(Br)ccc2=N1 | 1.53 |
| CCC1N=C(c2ccccc2)c2cc(Br)ccc2NC1=O (configuration not stated) | 3.79 |
| O=c1nc(-c2ccccc2)c2cc(Cl)ccc2[nH]1 | 2.53 |
| O=C1CN=C(c2ccccc2)c2cc(Br)ccc2N1 | 3.11 |
| CC(C)C1N=C(c2ccccc2)c2cc(Cl)ccc2NC1=O (configuration not stated) | 4 |
| CC(=O)OC1N=C(c2ccccc2)c2cc(Br)ccc2NC1=O (configuration not stated) | 2.76 |
